Experimental findings from ChEMBL document CHEMBL1201862, “PubChem BioAssay data set” (2004) are described below.

The source made the active and inactive calls.

Test [1] can be described thus: StAR promoter reporter inhibition counter-screen, dose response, counter-screen for LRH-1 inverse agonist project, cell-based, luminescence, luciferase reporter (AID 651969). Type of test: functional. A general note: The purpose of a counterscreen is to sort out artefacts and off-target activity.
Test [2] concerns the target Nuclear receptor subfamily 5 group A member 2 (Homo sapiens, UniProt O00482). Type of test: functional, cell-based.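 Also: HEK293T cells transfected with LRH-1 and a StAR promoter luciferase reporter; potency for inhibitors that lower LRH-1 driven reporter light.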
In the next test the target is Steroidogenic factor 1 (Homo sapiens, UniProt Q13285). Briefly: Counterscreen for inverse agonists of the liver receptor homolog-1 (LRH-1; NR5A2): Luminescence-based cell-based high throughput dose response assay to identify inverse agonists of the Steroidogenic Factor 1 Nuclear Receptor (SF1; NR5A1). Type of test: functional.
Steroidogenic factor 1, sequence (Q13285 whole entry): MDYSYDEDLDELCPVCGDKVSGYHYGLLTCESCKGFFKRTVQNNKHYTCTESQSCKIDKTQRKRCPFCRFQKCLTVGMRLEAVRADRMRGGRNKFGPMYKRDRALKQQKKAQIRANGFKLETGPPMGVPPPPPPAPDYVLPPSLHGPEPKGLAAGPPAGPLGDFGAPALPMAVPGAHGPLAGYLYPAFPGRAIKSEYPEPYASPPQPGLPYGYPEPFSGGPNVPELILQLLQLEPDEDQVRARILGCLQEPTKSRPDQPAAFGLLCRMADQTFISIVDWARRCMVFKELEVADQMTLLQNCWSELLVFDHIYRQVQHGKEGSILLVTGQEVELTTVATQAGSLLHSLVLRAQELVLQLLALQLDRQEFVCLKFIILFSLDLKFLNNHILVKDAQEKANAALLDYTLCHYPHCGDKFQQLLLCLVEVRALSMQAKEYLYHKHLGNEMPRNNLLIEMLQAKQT
Another test concerns the target T1, Caspase-3 (Homo sapiens, UniProt P42574).
T1 sequence (P42574 whole entry): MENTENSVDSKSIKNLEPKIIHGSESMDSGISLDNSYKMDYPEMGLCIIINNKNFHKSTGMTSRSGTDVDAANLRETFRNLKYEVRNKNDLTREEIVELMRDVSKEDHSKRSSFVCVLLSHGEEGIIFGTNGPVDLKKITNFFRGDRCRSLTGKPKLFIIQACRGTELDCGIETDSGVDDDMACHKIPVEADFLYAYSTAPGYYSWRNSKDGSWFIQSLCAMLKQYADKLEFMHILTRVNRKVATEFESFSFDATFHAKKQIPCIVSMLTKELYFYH
Nature of the test: SAR Analysis of small molecule inhibitors of Sentrin-specific proteases (SENPs) using a Caspase-3 Selectivity assay. [Related pubchem assays (depositor defined):AID2540, AID2599, AID434973, AID489001]. The format is functional.

The target in test [3] is T2, Sentrin-specific protease 6 (Homo sapiens, UniProt Q9GZR1).
T2 sequence (Q9GZR1 whole entry): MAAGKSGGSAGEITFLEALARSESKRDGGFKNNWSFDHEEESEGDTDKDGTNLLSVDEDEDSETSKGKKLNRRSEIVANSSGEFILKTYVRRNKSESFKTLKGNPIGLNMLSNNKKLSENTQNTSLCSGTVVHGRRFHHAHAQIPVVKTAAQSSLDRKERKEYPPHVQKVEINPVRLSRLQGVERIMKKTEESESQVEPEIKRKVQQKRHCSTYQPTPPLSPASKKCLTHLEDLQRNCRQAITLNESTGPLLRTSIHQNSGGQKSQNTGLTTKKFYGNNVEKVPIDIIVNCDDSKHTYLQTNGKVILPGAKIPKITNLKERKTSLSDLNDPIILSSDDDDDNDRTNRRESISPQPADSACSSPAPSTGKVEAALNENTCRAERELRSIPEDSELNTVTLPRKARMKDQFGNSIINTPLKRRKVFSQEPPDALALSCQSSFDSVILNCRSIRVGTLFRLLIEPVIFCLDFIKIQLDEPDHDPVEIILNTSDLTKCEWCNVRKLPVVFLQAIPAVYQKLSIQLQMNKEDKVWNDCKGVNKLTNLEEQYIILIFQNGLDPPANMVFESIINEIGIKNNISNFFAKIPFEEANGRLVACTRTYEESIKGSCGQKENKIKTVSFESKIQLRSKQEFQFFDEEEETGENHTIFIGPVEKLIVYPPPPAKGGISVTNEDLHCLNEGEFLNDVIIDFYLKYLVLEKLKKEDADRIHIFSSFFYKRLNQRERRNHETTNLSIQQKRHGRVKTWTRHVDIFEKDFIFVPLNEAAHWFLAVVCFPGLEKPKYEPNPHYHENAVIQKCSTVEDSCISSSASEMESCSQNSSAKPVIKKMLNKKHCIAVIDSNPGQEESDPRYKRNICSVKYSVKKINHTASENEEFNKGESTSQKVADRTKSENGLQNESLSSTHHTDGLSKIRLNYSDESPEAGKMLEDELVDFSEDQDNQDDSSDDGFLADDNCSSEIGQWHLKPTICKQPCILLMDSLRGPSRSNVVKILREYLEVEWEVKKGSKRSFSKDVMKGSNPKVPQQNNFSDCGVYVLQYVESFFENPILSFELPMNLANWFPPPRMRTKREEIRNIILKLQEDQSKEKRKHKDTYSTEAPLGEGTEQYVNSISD
Nature of the test: SAR Analysis of small molecule inhibitors of Sentrin-specific protease 6 (SENP6) using a Luminescent assay. [Related pubchem assays (depositor defined):AID2582, AID2599]. The format is functional.

Test [4] addresses T3, Sentrin-specific protease 8 (Homo sapiens, UniProt Q96LD8).
T3 sequence (Q96LD8 whole entry): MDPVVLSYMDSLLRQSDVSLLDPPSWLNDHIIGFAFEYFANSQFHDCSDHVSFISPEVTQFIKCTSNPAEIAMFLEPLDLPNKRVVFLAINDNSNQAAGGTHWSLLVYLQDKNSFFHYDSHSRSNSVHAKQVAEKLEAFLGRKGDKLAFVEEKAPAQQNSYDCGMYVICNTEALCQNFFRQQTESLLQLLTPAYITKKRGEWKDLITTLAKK
Briefly: SENP8 protease inhibitors, SAR follow-up, biochemical, luminescence (AID 504501). The format is functional.

The next test deals with HeLa. Briefly: HeLa cell cytotoxicity, dose response, cytotoxicity control, ATP luminescence, cherry-pick samples (AID 687004). The format is functional, cell-based.
Test [5] can be described thus: ADAM10 protease inhibitors, dose response, selectivity assay for ADAM17 exosite inhibitor project, biochemical, FRET peptide substrate, recombinant human ADAM10 (AID 743259).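 Also: ADAM10 enzyme cleaving a FRET peptide substrate.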
Another test concerns Cryptococcus neoformans. Briefly: PubChem AID 686997. The format is functional, organism-based.
Test [6] has as its target Disintegrin and metalloproteinase domain-containing protein 17 (Homo sapiens, UniProt P78536). Nature of the test: exosite inhibitors of ADAM17, dose response, biochemical (AID 743260).
Another test deals with Protein Wnt-3a (Mus musculus, UniProt P27467). Nature of the test: Wnt3a-driven reporter signaling inhibition, dose response, selectivity assay for Gli-SUFU antagonist project, Wnt-LIGHT cells, luminescence (AID 651570).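 Also: Wnt-LIGHT reporter cells stimulated with conditioned medium from Wnt3a-producing cells.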 The format is functional. The conditions noted are these: read-out: IC50_Mean.
Protein Wnt-3a, sequence (P27467 whole entry): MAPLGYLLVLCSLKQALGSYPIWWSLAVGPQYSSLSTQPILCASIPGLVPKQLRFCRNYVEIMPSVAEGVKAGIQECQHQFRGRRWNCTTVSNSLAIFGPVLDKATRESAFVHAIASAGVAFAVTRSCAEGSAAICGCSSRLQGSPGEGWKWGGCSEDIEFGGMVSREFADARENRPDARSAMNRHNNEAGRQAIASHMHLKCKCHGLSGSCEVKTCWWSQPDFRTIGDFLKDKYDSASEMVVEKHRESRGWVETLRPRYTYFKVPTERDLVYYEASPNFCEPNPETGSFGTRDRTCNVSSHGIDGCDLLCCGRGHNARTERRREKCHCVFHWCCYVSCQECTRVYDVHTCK
The test system of test [7] is HEK293. Briefly: NOD1 signaling inhibitors, primary screen, cell-based, luminescence, uHTS (AID 1578). The format is functional. The conditions noted are these: Homo sapiens.
Test [8] concerns HEK293. Nature of the test: cells. Type of test: functional, cell-based. As to conditions: Homo sapiens.
Test [9] concerns HEK293. Nature of the test: cells. Type of test: functional, cell-based. The conditions noted are these: Homo sapiens. The source holds these as a separate data set.
The subject of test [10] is HEK293. Nature of the test: NOD2 signaling inhibitors in MDP-stimulated cells, cell-based, uHTS, luminescence (AID 2001). Type of test: functional. As to conditions: Homo sapiens.
The subject of test [11] is HEK293. Briefly: cells. Type of test: functional, cell-based. As to conditions: Homo sapiens. The source holds these as a separate data set.
Test [12] addresses Nucleotide-binding oligomerization domain-containing protein 2 (Homo sapiens, UniProt Q9HC29). Nature of the test: NOD2 signaling inhibitors, cell-based, luminescence, uHTS, HEK293 (AID 1566). The format is functional.
In test [13] the target is Tyrosine-protein phosphatase non-receptor type 11 (Homo sapiens, UniProt Q06124). Nature of the test: SHP2 phosphatase inhibition, dose response, selectivity assay for STEP inhibitor project, biochemical (AID 602367). The format is functional. The conditions noted are these: read-out: IC50_Mean.
The target in test [14] is Polyadenylate-binding protein 1 (Homo sapiens, UniProt P11940). Briefly: PABP poly(A) RNA binding inhibitors, primary screen, biochemical, fluorescence polarization, uHTS (AID 2014).
Polyadenylate-binding protein 1, sequence (P11940 whole entry, the tested form may be a part): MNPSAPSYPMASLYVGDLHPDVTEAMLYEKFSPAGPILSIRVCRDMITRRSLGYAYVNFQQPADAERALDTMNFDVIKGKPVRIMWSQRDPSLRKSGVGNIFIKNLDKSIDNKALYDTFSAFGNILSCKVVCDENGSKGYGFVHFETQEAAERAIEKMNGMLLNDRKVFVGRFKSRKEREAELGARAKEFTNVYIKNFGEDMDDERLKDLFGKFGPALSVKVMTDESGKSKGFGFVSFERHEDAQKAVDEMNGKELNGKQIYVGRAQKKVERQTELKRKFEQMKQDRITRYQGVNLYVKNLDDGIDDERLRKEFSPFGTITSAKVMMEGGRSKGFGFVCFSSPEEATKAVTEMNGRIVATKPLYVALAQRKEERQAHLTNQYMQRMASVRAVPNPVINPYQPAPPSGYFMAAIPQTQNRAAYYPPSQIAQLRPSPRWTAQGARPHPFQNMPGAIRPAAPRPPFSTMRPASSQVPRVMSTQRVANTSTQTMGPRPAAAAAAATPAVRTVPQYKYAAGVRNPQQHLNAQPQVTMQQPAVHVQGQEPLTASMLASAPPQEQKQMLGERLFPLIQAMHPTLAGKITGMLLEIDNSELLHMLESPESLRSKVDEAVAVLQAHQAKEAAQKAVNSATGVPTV
Test [15] addresses T4, Carboxy-terminal domain RNA polymerase II polypeptide A small phosphatase 1 (Homo sapiens, UniProt Q9GZU7).
T4 sequence (Q9GZU7 whole entry): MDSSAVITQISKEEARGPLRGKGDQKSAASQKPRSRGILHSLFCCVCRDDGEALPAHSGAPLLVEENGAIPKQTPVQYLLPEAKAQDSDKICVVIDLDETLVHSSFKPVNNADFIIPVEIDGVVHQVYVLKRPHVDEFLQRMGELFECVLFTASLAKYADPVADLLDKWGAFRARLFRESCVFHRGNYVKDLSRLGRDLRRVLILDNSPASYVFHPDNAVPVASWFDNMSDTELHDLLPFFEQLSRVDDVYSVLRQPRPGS
Nature of the test: inhibitors of CTDSP1, concentration-response testing, biochemical assay, absorbance-based, actives from ultra-high-throughput screening (AID 540297). Type of test: functional.

The target in test [16] is T5, SUMO-activating enzyme (Homo sapiens, UniProt Q9UBT2). Nature of the test: SUMOylation inhibitor hit validation, confirmation, SUMOylation inhibitor project, biochemical, AlphaScreen (AID 2018). The format is functional.
T5 sequence (Q9UBE0 whole entry): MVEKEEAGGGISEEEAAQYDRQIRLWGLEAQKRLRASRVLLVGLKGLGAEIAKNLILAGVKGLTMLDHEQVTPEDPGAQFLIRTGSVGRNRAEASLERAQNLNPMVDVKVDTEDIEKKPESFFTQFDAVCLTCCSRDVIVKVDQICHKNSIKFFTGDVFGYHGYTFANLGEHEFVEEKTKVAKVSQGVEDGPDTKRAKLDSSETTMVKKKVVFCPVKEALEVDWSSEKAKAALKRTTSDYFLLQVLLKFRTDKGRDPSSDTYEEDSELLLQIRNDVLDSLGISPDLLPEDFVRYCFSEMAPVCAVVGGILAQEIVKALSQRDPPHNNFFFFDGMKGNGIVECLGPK
T5 sequence (Q9UBT2 whole entry): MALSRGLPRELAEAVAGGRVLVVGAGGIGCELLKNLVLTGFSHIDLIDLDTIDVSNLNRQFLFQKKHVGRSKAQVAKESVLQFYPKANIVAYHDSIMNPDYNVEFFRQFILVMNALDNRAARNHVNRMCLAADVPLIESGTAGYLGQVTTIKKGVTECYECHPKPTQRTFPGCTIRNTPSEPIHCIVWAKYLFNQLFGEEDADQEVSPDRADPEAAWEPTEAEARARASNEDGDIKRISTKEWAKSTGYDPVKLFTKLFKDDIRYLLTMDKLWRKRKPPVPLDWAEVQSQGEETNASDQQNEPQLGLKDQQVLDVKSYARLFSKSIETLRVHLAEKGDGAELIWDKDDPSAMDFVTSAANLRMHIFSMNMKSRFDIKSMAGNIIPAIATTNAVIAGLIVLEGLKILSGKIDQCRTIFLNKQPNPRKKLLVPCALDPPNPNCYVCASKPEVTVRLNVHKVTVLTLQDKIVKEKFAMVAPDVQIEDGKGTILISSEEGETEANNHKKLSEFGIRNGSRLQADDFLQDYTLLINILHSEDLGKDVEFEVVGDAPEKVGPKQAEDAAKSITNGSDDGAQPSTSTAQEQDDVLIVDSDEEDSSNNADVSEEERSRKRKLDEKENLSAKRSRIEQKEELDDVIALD
The target of test [17] is T5, SUMO-activating enzyme. Nature of the test: inhibitors of in vitro SUMOylation cascade, primary screen, biochemical, HTRF, uHTS (AID 2006). The format is protein-complex assay. In general terms: In TR-FRET formats the signal depends on donor and acceptor labels being close together.
Test [18] has as its target Dual specificity protein phosphatase 3 (Homo sapiens, UniProt P51452). Nature of the test: VHR phosphatase inhibition, dose response, selectivity assay for STEP inhibitor project, biochemical (AID 602374). The format is functional. The conditions noted are these: read-out: IC50_Mean.
Test [19] concerns the target Tyrosine-protein phosphatase non-receptor type 5 (Homo sapiens, UniProt P54829). Nature of the test: STEP phosphatase inhibitors, confirmation, biochemical, fluorescence intensity, uHTS hits (AID 602372). Type of test: functional. The conditions noted are these: read-out: IC50_Mean.
For another test, the system named is H9c2. Briefly: cells. As to conditions: Rattus norvegicus, H9c2, Myocardium. Type of test: functional, cell-based.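 Also: confirmatory concentration-response retest of ultra-high-throughput screening hits for modulation of myocardial damage; cell death induced by hydrogen peroxide oxidative stress; compound pretreatment for 60 min then peroxide exposure for 2 h; potency is for protecting the cells against peroxide damage rather than for killing them.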
Test [20] deals with Eukaryotic translation initiation factor 4H (Homo sapiens, UniProt Q15056). Nature of the test: human eIF4H binding inhibitors, primary screen, translation initiation inhibitor project, biochemical, uHTS, fluorescence polarization (AID 2012). (In general: In fluorescence polarisation assays a small probe gives low polarisation when free and higher when bound to something large.)

The target of test [21] is Ras and Rab interactor 1/Tyrosine-protein kinase ABL1 (Homo sapiens, UniProt P00519+Q13671). Type of test: functional.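 Also: biochemical TR-FRET dose-response test measuring inhibition of binding between Rin1 and Abl proteins.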
For test [22], the system named is BJ. Briefly: cytotoxicity toward Ras-transformed BJeLR fibroblasts, dose response, cell-based, alamar blue fluorescence, cherrypicked samples (AID 2631).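 Also: confirmatory dose-response assay in RAS-dependent BJ fibroblasts engineered with TERT, LT and ST, with cytotoxicity read by fluorescence.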 The format is functional. The conditions noted are these: Homo sapiens.
The subject of the next test is Vero. Nature of the test: cells. Type of test: functional. The conditions noted are these: Chlorocebus sabaeus.
The test system of test [23] is BJ. Briefly: cells. Type of test: functional, cell-based. The conditions noted are these: Homo sapiens.
Test [24] deals with BJ. Nature of the test: cytotoxicity toward BJ-TERT-LT-ST fibroblasts, dose response, cell-based, RAS-independent, luminescence (AID 1935).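 Also: BJ fibroblasts immortalized with TERT plus LT and ST oncogenes.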 Type of test: functional. The conditions noted are these: Homo sapiens.
In test [25] the test system is BJ. Briefly: cytotoxicity toward BJ-TERT fibroblasts, dose response, cell-based, RAS-independent, luminescence (AID 1933). Type of test: functional. As to conditions: Homo sapiens.
A short description of test [26]: cytotoxicity toward DRD oncogenic fibroblasts, dose response, cell-based, non-viral oncogenic, luminescence (AID 1934). The conditions noted are these: Homo sapiens. The format is functional.

Dual specificity protein phosphatase 3, sequence (P51452 whole entry): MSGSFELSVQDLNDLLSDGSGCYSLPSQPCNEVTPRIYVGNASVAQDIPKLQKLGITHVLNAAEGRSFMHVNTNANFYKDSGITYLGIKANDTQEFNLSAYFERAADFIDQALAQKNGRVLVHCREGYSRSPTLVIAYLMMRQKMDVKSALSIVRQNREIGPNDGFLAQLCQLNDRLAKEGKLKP
Nuclear receptor subfamily 5 group A member 2, sequence (O00482 whole entry): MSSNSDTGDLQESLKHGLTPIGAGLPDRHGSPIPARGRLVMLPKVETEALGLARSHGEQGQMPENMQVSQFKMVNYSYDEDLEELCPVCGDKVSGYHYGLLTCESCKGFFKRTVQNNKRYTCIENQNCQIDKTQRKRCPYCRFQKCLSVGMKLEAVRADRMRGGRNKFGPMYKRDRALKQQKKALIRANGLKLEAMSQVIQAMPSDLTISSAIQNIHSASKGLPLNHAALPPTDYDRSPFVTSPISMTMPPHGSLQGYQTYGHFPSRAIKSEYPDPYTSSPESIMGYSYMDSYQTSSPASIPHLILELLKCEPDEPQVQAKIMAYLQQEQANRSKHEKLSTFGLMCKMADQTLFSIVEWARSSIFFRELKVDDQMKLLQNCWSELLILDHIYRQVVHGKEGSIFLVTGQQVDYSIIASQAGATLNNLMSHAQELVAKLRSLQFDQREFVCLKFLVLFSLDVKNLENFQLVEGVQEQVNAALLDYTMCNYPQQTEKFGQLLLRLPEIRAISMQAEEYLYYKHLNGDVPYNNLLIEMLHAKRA
Tyrosine-protein phosphatase non-receptor type 5, sequence (P54829 whole entry): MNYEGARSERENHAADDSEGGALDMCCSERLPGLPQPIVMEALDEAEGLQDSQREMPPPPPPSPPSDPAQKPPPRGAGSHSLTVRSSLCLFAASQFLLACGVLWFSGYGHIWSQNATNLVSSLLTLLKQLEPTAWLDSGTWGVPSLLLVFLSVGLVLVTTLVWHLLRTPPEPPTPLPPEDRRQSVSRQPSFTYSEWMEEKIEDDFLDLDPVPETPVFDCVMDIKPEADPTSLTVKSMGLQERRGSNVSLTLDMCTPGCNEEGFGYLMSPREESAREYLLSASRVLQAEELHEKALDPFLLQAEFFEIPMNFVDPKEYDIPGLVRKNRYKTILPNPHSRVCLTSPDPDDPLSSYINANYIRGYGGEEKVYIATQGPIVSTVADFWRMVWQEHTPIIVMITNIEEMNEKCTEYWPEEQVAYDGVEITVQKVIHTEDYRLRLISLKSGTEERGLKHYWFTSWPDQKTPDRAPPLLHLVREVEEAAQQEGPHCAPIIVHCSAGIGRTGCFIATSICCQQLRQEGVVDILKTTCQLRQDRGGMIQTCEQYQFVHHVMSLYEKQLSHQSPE
Disintegrin and metalloproteinase domain-containing protein 17, sequence (P78536 whole entry, the tested form may be a part): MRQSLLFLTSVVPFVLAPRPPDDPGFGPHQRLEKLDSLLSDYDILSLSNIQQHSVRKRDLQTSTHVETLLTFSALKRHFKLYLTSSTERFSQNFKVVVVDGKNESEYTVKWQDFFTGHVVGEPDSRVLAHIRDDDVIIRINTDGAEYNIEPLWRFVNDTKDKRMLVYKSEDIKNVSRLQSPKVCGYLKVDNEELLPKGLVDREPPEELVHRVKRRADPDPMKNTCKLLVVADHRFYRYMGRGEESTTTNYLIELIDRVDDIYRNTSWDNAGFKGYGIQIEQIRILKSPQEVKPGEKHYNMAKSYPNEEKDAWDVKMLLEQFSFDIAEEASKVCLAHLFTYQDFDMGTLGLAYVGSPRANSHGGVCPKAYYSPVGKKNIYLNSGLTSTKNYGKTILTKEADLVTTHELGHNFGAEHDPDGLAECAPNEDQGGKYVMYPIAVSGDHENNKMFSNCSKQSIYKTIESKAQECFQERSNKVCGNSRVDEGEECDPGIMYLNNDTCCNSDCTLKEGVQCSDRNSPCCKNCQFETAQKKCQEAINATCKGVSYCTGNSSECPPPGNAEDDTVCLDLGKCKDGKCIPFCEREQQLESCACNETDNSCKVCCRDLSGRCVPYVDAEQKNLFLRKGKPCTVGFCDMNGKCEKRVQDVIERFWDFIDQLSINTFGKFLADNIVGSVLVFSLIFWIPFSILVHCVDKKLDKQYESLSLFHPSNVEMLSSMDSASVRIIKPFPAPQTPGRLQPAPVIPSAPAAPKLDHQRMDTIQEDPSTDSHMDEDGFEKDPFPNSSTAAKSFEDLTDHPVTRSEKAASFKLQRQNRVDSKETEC

Take `Cc1cc(OCC(=O)Nc2nccs2)c2c(C)cc(=O)oc2c1`: the values for the IC50 (in test [1]; in test [2]; on Steroidogenic factor 1) were 35.9 µM (inactive), 0.168 µM (active) and 0.112 µM (active), respectively.
Consider `COc1ccccc1OCc1ccc(C(=O)Nc2ccccc2F)cc1`, for which the IC50 was 8.88 µM (active) at Caspase-3, > 99 µM (inactive) in test [3] and > 99 µM (inactive) in [4].
`COC(=O)C1=C(C)N(Cc2ccc(Br)cc2)C(=S)NC1c1ccc(F)cc1` (stereo not given): the AC50 in the test with HeLa was > 52 µM (inactive); in the test with HeLa (Homo sapiens), > 47 µM (inactive); with Cryptococcus neoformans it was 23.2 µM (active); with Cryptococcus neoformans (Cryptococcus neoformans), 40.3 µM (active). The figures for the IC50 in test [5] and in [6] were 52.8 µM (inactive) and > 69.6 µM (inactive), respectively.
With `Cc1nc2cc(N3CCN(C)CC3)c(NC(=O)Cc3ccccc3)cc2c(=O)n1Cc1ccccc1`, the IC50 was 37.5 µM (inactive) at Protein Wnt-3a; > 20 µM (inactive) in the test with HEK293 [8]; 8.5 µM (active) in the test with HEK293 [9]; > 20 µM (inactive) in the test on HEK293 [10]; > 20 µM (inactive) in the test on HEK293 [11]. The EC50 with HEK293 [7] is > 20 µM (inactive); in [12], 9.39 µM (active).
`COc1cc(/C=N/NC(=O)c2ccccc2O)ccc1OCC(=O)Nc1ccccc1`: the IC50 was 1.25 µM (active) in test [13]; > 100 µM (inactive) in test [14]; 5.46 µM (active) in test [15]; 16.4 µM (active) on SUMO-activating enzyme [16]; 8.71 µM (active) at SUMO-activating enzyme [17]; 4.1 µM (active) in [18]. Besides, the IC50 in [19] was 26.2 µM (inactive); in the test with H9c2, > 79 µM (inactive); in [20] it was 15.4 µM (active).
Consider `CC(=O)Nc1ccc(NC(=O)C2CCN(C(=O)c3cccs3)CC2)cc1`, for which, in test [21], the IC50 was 1.9 µM (active).
For the compound `COc1ccc(/C=N\NC(=O)c2cccc(F)c2)cc1COc1ccccc1`, the EC50 in the test with BJ [22] was 0.286 µM (active); in the test on BJ [23], 31.5 µM (active); in the test on BJ [24], 5.12 µM (inconclusive); with BJ [25] it was 0.575 µM (inconclusive); in [26], 1.15 µM (active). Further, the CC50 with Vero was 0.35 µM (active).

A word on the AC50: it is the midpoint of the concentration-response curve, whichever way the signal moves. Broadly, the EC50 is the midpoint of the concentration-response curve. The CC50 is the concentration that lowers cell viability or growth by half.
